Patent US20240228504A1, “SUBSTITUTED TRICYCLIC AMIDES, ANALOGUES THEREOF, AND METHODS USING SAME” (Arbutus Biopharma Corporation, priority 2020, published 2024)

Tested on: HBV rcDNA in HepDE19 cells
Test: HepDE19 assay with bDNA quantitation of HBV rcDNA
Type: cell-based, hepatitis B virus
Settings: Hepatitis B virus, HepDE19, HepDE19 assay, inhibition of rcDNA formation, bDNA quantitation; read-out: DE-19bDNA EC50

Structure (SMILES) | EC50
CN(C(=O)c1ccc(-c2cc(F)cc(F)c2)cc1)[C@@H]1COCc2[nH]c(=O)c3cc(F)c(F)cc3c21 [Compound 286, (S)-N-(8,9-Difluoro-6-oxo-1,4,5,6-tetrahydro-2H-pyrano[3,4-c]isoquinolin-1-yl)-3′,5′-difluoro-N-methyl-[1,1′-biphenyl]-4-carboxamide] | 12900 nM
CN(C(=O)c1ccc(-c2cc(F)cc(F)c2)c(F)c1)[C@@H]1COCc2[nH]c(=O)c3cc(F)c(F)cc3c21 [Compound 287, (S)-N-(8,9-Difluoro-6-oxo-1,4,5,6-tetrahydro-2H-pyrano[3,4-c]isoquinolin-1-yl)-2,3′,5′-trifluoro-N-methyl-[1,1′-biphenyl]-4-carboxamide] | 12700 nM
CN(C(=O)c1cccc(-c2ccccc2)c1)[C@@H]1COCc2[nH]c(=O)c3cc(F)c(F)cc3c21 [Compound 288, (S)-N-(8,9-Difluoro-6-oxo-1,4,5,6-tetrahydro-2H-pyrano[3,4-c]isoquinolin-1-yl)-N-methyl-[1,1′-biphenyl]-3-carboxamide] | 11300 nM
CN(C(=O)c1cccc(-c2ccc(F)cc2)c1)[C@@H]1COCc2[nH]c(=O)c3cc(F)c(F)cc3c21 [Compound 289, (S)-N-(8,9-Difluoro-6-oxo-1,4,5,6-tetrahydro-2H-pyrano[3,4-c]isoquinolin-1-yl)-4′-fluoro-N-methyl-[1,1′-biphenyl]-3-carboxamide] | 6400 nM
CN(C(=O)c1cccc(-c2cccc(F)c2)c1)[C@@H]1COCc2[nH]c(=O)c3cc(F)c(F)cc3c21 [Compound 290, (S)-N-(8,9-Difluoro-6-oxo-1,4,5,6-tetrahydro-2H-pyrano[3,4-c]isoquinolin-1-yl)-3′-fluoro-N-methyl-[1,1′-biphenyl]-3-carboxamide] | 2300 nM
CN(C(=O)c1cc(F)cc(-c2cccc(F)c2)c1)[C@@H]1COCc2[nH]c(=O)c3cc(F)c(F)cc3c21 [Compound 291, (S)-N-(8,9-Difluoro-6-oxo-1,4,5,6-tetrahydro-2H-pyrano[3,4-c]isoquinolin-1-yl)-3′,5-difluoro-N-methyl-[1,1′-biphenyl]-3-carboxamide] | 10100 nM
CN(C(=O)c1cccc(Oc2ccccc2)c1)[C@@H]1COCc2[nH]c(=O)c3cc(F)c(F)cc3c21 [Compound 292, (S)-N-(8,9-Difluoro-6-oxo-1,4,5,6-tetrahydro-2H-pyrano[3,4-c]isoquinolin-1-yl)-N-methyl-3-phenoxybenzamide] | 11200 nM
CN(C(=O)c1cccc(Oc2ccc(F)cc2)c1)[C@@H]1COCc2[nH]c(=O)c3cc(F)c(F)cc3c21 [Compound 293, (S)-N-(8,9-Difluoro-6-oxo-1,4,5,6-tetrahydro-2H-pyrano[3,4-c]isoquinolin-1-yl)-3-(4-fluorophenoxy)-N-methylbenzamide] | 7600 nM
CN(C(=O)c1cc2ccsc2[nH]1)[C@@H]1COCc2[nH]c(=O)c3cc(F)c(F)cc3c21 [Compound 294, (S)-N-(8,9-Difluoro-6-oxo-1,4,5,6-tetrahydro-2H-pyrano[3,4-c]isoquinolin-1-yl)-N-methyl-6H-thieno[2,3-b]pyrrole-5-carboxamide] | 50 nM
CN(C(=O)c1ccc(S(C)(=O)=O)cc1)[C@@H]1COCc2[nH]c(=O)c3cc(F)c(F)cc3c21 [Compound 295, (S)-N-(8,9-Difluoro-6-oxo-1,4,5,6-tetrahydro-2H-pyrano[3,4-c]isoquinolin-1-yl)-N-methyl-4-(methylsulfonyl)benzamide] | 350 nM
CNS(=O)(=O)c1cccc(C(=O)N(C)[C@@H]2COCc3[nH]c(=O)c4cc(F)c(F)cc4c32)c1 [Compound 296, (S)-N-(8,9-Difluoro-6-oxo-1,4,5,6-tetrahydro-2H-pyrano[3,4-c]isoquinolin-1-yl)-N-methyl-3-(N-methylsulfamoyl)benzamide] | 890 nM
CN(C(=O)c1cccc(NS(C)(=O)=O)c1)[C@@H]1COCc2[nH]c(=O)c3cc(F)c(F)cc3c21 [Compound 297, (S)-N-(8,9-Difluoro-6-oxo-1,4,5,6-tetrahydro-2H-pyrano[3,4-c]isoquinolin-1-yl)-N-methyl-3-(methylsulfonamido)benzamide] | 21000 nM
CN(C(=O)c1cccc(S(C)(=O)=O)c1)[C@@H]1COCc2[nH]c(=O)c3cc(F)c(F)cc3c21 [Compound 298, (S)-N-(8,9-Difluoro-6-oxo-1,4,5,6-tetrahydro-2H-pyrano[3,4-c]isoquinolin-1-yl)-N-methyl-3-(methylsulfonyl)benzamide] | 9000 nM
CN(C(=O)c1ccc2cncn2c1)[C@@H]1COCc2[nH]c(=O)c3cc(F)c(F)cc3c21 [Compound 299, (S)-N-(8,9-Difluoro-6-oxo-1,4,5,6-tetrahydro-2H-pyrano[3,4-c]isoquinolin-1-yl)-N-methylimidazo[1,5-a]pyridine-6-carboxamide] | 360 nM
CC(C)C(=O)OC1OC[C@@H](N(C)C(=O)c2cc3cc(F)c(F)cc3[nH]2)c2c1[nH]c(=O)c1cc(F)c(F)cc21 (stereo partly drawn) [Compound 300, (1S)-1-(5,6-Difluoro-N-methyl-1H-indole-2-carboxamido)-8,9-difluoro-6-oxo-1,4,5,6-tetrahydro-2H-pyrano[3,4-c]isoquinolin-4-yl isobutyrate] | 10 nM
CN(C(=O)c1cc(F)cc(Oc2ccccc2)c1)[C@@H]1COCc2[nH]c(=O)c3cc(F)c(F)cc3c21 [Compound 303, (S)-N-(8,9-Difluoro-6-oxo-1,4,5,6-tetrahydro-2H-pyrano[3,4-c]isoquinolin-1-yl)-3-fluoro-N-methyl-5-phenoxybenzamide] | 6700 nM
CN(C(=O)c1ccc2nccn2c1)[C@@H]1COCc2[nH]c(=O)c3cc(F)c(F)cc3c21 [Compound 306, (S)-N-(8,9-Difluoro-6-oxo-1,4,5,6-tetrahydro-2H-pyrano[3,4-c]isoquinolin-1-yl)-N-methylimidazo[1,2-a]pyridine-6-carboxamide] | 420 nM
CN(C(=O)c1cc2ccncc2[nH]1)[C@@H]1COCc2[nH]c(=O)c3cc(F)c(F)cc3c21 [Compound 307, (S)-N-(8,9-Difluoro-6-oxo-1,4,5,6-tetrahydro-2H-pyrano[3,4-c]isoquinolin-1-yl)-N-methyl-1H-pyrrolo[2,3-c]pyridine-2-carboxamide] | 200 nM
CN(C(=O)c1cc2cnccc2[nH]1)[C@@H]1COCc2[nH]c(=O)c3cc(F)c(F)cc3c21 [Compound 308, (S)-N-(8,9-Difluoro-6-oxo-1,4,5,6-tetrahydro-2H-pyrano[3,4-c]isoquinolin-1-yl)-N-methyl-1H-pyrrolo[3,2-c]pyridine-2-carboxamide] | 610 nM
CN(C(=O)c1cc2cnc(Cl)cc2[nH]1)[C@@H]1COCc2[nH]c(=O)c3cc(F)c(F)cc3c21 [Compound 309, (S)-6-chloro-N-(8,9-difluoro-6-oxo-1,4,5,6-tetrahydro-2H-pyrano[3,4-c]isoquinolin-1-yl)-N-methyl-1H-pyrrolo[3,2-c]pyridine-2-carboxamide] | 50 nM
CN(C(=O)c1cc2cc(F)ncc2[nH]1)[C@@H]1COCc2[nH]c(=O)c3cc(F)c(F)cc3c21 [Compound 310, (S)-N-(8,9-Difluoro-6-oxo-1,4,5,6-tetrahydro-2H-pyrano[3,4-c]isoquinolin-1-yl)-5-fluoro-N-methyl-1H-pyrrolo[2,3-c]pyridine-2-carboxamide] | 30 nM
CN(C(=O)c1ccc2cc(C(F)(F)F)cn2c1)[C@@H]1COCc2[nH]c(=O)c3cc(F)c(F)cc3c21 [Compound 311, (S)-N-(8,9-Difluoro-6-oxo-1,4,5,6-tetrahydro-2H-pyrano[3,4-c]isoquinolin-1-yl)-N-methyl-2-(trifluoromethyl)indolizine-6-carboxamide] | 140 nM
CN(C(=O)c1cc2c(Br)cncc2[nH]1)[C@@H]1COCc2[nH]c(=O)c3cc(F)c(F)cc3c21 [Compound 312, (S)-4-Bromo-N-(8,9-difluoro-6-oxo-1,4,5,6-tetrahydro-2H-pyrano[3,4-c]isoquinolin-1-yl)-N-methyl-1H-pyrrolo[2,3-c]pyridine-2-carboxamide] | 30 nM
CN(C(=O)c1ccnc(C(F)F)c1)[C@@H]1COCc2[nH]c(=O)c3cc(F)c(F)cc3c21 [Compound 313, (S)-N-(8,9-Difluoro-6-oxo-1,4,5,6-tetrahydro-2H-pyrano[3,4-c]isoquinolin-1-yl)-2-(difluoromethyl)-N-methylisonicotinamide] | 170 nM
CN(C(=O)c1cc2occc2[nH]1)[C@@H]1COCc2[nH]c(=O)c3cc(F)c(F)cc3c21 [Compound 314, (S)-N-(8,9-Difluoro-6-oxo-1,4,5,6-tetrahydro-2H-pyrano[3,4-c]isoquinolin-1-yl)-N-methyl-4H-furo[3,2-b]pyrrole-5-carboxamide] | 150 nM
CN(C(=O)c1cc2cc(F)c(F)cc2[nH]1)[C@@H]1COCc2c1c1cc(F)c(F)cc1c(=O)n2CCO [Compound 315, (S)-N-(8,9-Difluoro-5-(2-hydroxyethyl)-6-oxo-1,4,5,6-tetrahydro-2H-pyrano[3,4-c]isoquinolin-1-yl)-5,6-difluoro-N-methyl-1H-indole-2-carboxamide] | 30 nM
CN(C(=O)c1cc2cc(F)c(F)cc2[nH]1)[C@@H]1COCc2c1c1cc(F)c(F)cc1c(=O)n2CCN [Compound 316] | 390 nM
CN(C(=O)c1cc2cc(F)c(F)cc2[nH]1)[C@@H]1COCc2nc(OCCO)c3cc(F)c(F)cc3c21 [Compound 317, (S)-N-(8,9-Difluoro-6-(2-hydroxyethoxy)-1,4-dihydro-2H-pyrano[3,4-c]isoquinolin-1-yl)-5,6-difluoro-N-methyl-1H-indole-2-carboxamide] | 10 nM
COC1OC[C@@H](N(C)C(=O)c2cc3cc(F)c(F)cc3[nH]2)c2c1[nH]c(=O)c1cc(F)c(F)cc21 (stereo partly drawn) [Compound 320, N-((1S)-8,9-Difluoro-4-methoxy-6-oxo-1,4,5,6-tetrahydro-2H-pyrano[3,4-c]isoquinolin-1-yl)-5,6-difluoro-N-methyl-1H-indole-2-carboxamide] | 30 nM
CN(C(=O)c1cc2cc(F)c(F)cc2[nH]1)[C@@H]1COC(=O)c2[nH]c(=O)c3cc(F)c(F)cc3c21 [Compound 321, (S)-N-(8,9-Difluoro-4,6-dioxo-1,4,5,6-tetrahydro-2H-pyrano[3,4-c]isoquinolin-1-yl)-5,6-difluoro-N-methyl-1H-indole-2-carboxamide] | 10 nM
